Measured values from EP1621631A1, “Method for the production of C6 and/or C9 aldehydes and alcohols in plants by 9/13 divinyl ether synthase” (Georg-August-Universität Göttingen, priority 2004, dated 2006).

Columns and labels:
9/13-DES = assay: Determination of the pH optimum of 9/13-DES (endpoint determination by normal-phase and reversed-phase HPLC); assay type: biochemical, Knoblauch; details: substrate of recombinant 9/13-DES; pH 5,5 bis 8,6; no pH optimum could be determined
Method: Das pH-Optimum wurde mittels einer Endpunktbestimmung mit Hilfe der Normal-Phasen-HPLC und der Umkehr-Phasen-HPLC ermittelt. Es wurden sowohl 9-HPOD als auch 13-HPOD als Substrate der DES verwendet. Für die Bestimmung des pH-Optimums wurde die Umsetzung bei pH-Werten von 4,5 bis 8,5 in Schritten von 0,5 pH-Einheiten durchgeführt. Für pH 7 wurden zweimal drei Messungen durchgeführt, da für diesen pH-Wert sowohl ein 50 mM Natrium-Phosphatpuffer als auch ein 50 mM Tris/HCl-Puffer verwendet wurde. Für die Umsetzungen wurden zwischen 25 und 80 nmol der Hydroperoxide eingesetzt. Von dem einzelnen Hydroperoxid wurde dabei immer die gleiche Menge für jede Umsetzung eingesetzt. Parallel zu den Proben für den pH-Optimumstest wurden drei Ansätze mit Zelllysat des leeren Vektors in E. coli mit 13-HPOD inkubiert. Die Leervektorkontrolle zeigte keine Divinylether-Bildung, es konnte nur das Hydroperoxid nachgewiesen werden.

[1] = tested on: 9/13-Divinylethersynthase aus Knoblauch; assay: Photometric determination of the substrate specificity of 9/13-DES; assay type: biochemical; details: purified 9/13-DES; 100 µM hydroperoxide; room temperature; decrease of extinction at 234 or 236 nm over one minute
Method: Für die Bestimmung der Substratspezifität wurde die 9/13-Divinylethersynthase aus Knoblauch aus einer Expressionskultur aufgereinigt. Dazu wurde zunächst eine 400 ml Expressionskultur unter den schon vorher beschriebenen Bedingungen angeimpft und angezogen. Die Zellen wurden nach zweitägiger Inkubation durch 15-minütige Zentrifugation mit 4000 g bei 4°C sedimentiert. Das Sediment wurde in 20 ml 50 mM Na-Phosphat, pH 8, resuspendiert und mit Ultraschall (Sonopuls GM 70, Bandelin, Berlin) für 5-Mal eine Minute bei 50 % Leistung und 50 % Impuls aufgeschlossen. Die Zelltrümmer wurden 15 min bei 4000 x g sedimentiert und aus dem Überstand wurden durch eine weitere Zentrifugation (1 h bei 100000 x g) die Zellmembranen sedimentiert. Das Membransediment wurde für 1 h in 50 mM Na-Phosphat, pH 8, mit 1M NaCl und 0,1 % (v/v) TritonX-100 inkubiert, um die Membranproteine zu solubilisieren. Anschließend wurde erneut 1 h bei 100000 x g zentrifugiert. Der Überstand wurde mit Talon Metal Affinity Resin (Clontech, Palo Alto, USA) (200 µl Bettvolumen) über Nacht bei 4 °C geschüttelt. Danach wurde das Material auf eine Leersäule (T.J. Baker, Phillipsburg, N.J., USA) gegeben. Die Elution erfolgte mit 3 ml 50 mM Tris/HCl pH 6,3, 10 % Glycerin, 0,1 % Tween 20, 0,5 M NaCl und 0,1 M EDTA. Durch eine PD-10 Säule (Amersham pharmacia biotech, UK) wurde das Protein in 50 mM Na-Phosphat-Puffer pH 8 umgepuffert.
Das so aufgereinigte Protein wurde für die Tests im Photometer eingesetzt. Die Messungen erfolgten bei Raumtemperatur und es wurde immer bei der Wellenlänge des eingesetzten Hydroperoxids (234 bzw. 236 nm) bei einer Konzentration 100 µM für eine Minute die Abnahme der Extinktion aufgezeichnet. Die Messungen erfolgten in einer 100 µl Quarzküvette. Die Reaktion wurde durch die Zugaben von 1 µl der Proteinlösung gestartet.

Row | Compound | Umsetzung über den pH-Bereich (9/13-DES) | Substratspezifität (Umsetzung durch 9/13-DES) [1]
1 | CCCCC/C=C\C=C\[C@H](CCCCCCCC(=O)O)OO [9-HPOD, (9S, 10E, 12Z)-9-Hydroperoxy-10,12-Octadecadiensäure] | gleich gut umgesetzt | in etwas geringerem Maße
2 | CC/C=C\C/C=C\C=C\[C@H](CCCCCCCC(=O)O)OO [9-HPOT, (9S, 10E, 12Z, 15Z)-9-Hydroperoxy-10,12,15-Octadecatriensäure] |  | wesentlich weniger stark umgesetzt
3 | CCCCC[C@@H](/C=C/C=C\CCCCCCCC(=O)O)OO [13-HPOD, (13S, 9Z, 11E)-13-Hydroperoxy-9,11-Octadecadiensäure] |  | bevorzugt
4 | CC/C=C\C[C@@H](/C=C/C=C\CCCCCCCC(=O)O)OO [13-HPOT, (9Z, 11E, 13S, 15Z)-13-Hydroperoxy-9,11,15-Octadecatriensäure] |  | wesentlich weniger stark umgesetzt
